The values that follow come from ChEMBL document CHEMBL1126522, “Indolocarbazoles. 1. Total synthesis and protein kinase inhibiting characteristics of compounds related to K-252c” (Bioorg Med Chem Lett, 1993).

Molecular target in one experiment: not listed separately
As to the kind of experiment: Displacement of ATP from myosin light chain kinase.
In general, Ki refers to a measure of affinity in units of concentration, obtained from inhibition or displacement. Lower therefore signals higher affinity. As to `O=C1NC(=O)c2c1c1c3ccccc3n3c1c1c2c2ccccc2n1[C@@H]1O[C@H]3C[C@@H]1CO`, the Ki worked out at 0.7 nM.

The target of a further experiment is Receptor tyrosine-protein kinase erbB-2 (Homo sapiens, UniProt P04626). The experiment in a line: Inhibition of neu (erb-B2) HER2 kinase.
Sequence of Receptor tyrosine-protein kinase erbB-2 (P04626 whole entry): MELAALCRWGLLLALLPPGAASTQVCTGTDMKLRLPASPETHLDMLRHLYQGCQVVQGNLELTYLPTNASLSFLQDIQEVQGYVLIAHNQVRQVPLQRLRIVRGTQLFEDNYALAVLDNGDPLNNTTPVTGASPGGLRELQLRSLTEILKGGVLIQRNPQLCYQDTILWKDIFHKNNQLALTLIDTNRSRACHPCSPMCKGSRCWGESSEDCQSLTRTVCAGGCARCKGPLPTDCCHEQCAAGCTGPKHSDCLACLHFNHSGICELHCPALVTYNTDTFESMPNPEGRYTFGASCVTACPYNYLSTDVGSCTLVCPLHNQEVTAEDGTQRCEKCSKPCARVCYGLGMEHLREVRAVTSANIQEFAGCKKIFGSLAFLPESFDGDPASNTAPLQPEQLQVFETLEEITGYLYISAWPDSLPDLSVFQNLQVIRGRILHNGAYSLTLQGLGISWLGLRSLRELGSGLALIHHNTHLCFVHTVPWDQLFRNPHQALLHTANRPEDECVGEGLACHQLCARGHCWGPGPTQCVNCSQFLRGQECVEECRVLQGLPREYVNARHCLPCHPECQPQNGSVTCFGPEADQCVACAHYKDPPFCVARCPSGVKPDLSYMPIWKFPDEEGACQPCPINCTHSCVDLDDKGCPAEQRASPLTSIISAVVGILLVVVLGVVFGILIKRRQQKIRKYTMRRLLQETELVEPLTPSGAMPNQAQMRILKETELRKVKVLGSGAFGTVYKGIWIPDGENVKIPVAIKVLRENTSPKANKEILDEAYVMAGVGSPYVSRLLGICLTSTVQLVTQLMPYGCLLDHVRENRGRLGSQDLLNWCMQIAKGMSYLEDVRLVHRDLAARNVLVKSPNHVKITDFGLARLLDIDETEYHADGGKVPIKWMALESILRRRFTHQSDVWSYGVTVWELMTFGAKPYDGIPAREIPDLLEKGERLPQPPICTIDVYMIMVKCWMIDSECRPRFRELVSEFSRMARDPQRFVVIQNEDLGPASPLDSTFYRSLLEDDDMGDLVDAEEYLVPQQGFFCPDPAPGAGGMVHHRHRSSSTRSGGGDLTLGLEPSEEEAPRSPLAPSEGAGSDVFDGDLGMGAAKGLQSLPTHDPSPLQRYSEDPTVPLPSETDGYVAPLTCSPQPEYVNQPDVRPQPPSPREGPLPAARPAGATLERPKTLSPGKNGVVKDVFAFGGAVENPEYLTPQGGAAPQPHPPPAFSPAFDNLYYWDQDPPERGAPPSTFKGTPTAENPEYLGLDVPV
For orientation: IC50 means the concentration that inhibits the measured activity by half. `O=C1NC(=O)c2c1c1c3ccccc3n3c1c1c2c2ccccc2n1[C@@H]1O[C@H]3C[C@@H]1CO`: the IC50 turned out to be 250 nM.

The next experiment addresses cAMP-dependent protein kinase (PKA) (Homo sapiens, UniProt P22694+P17612+P22612). As to the kind of experiment: Inhibition of cAMP-dependent protein kinase (PKA). Format: protein assay.
`O=C1NC(=O)c2c1c1c3ccccc3n3c1c1c2c2ccccc2n1[C@@H]1O[C@H]3C[C@@H]1CO` yielded an IC50 of 18.5 nM.

In the next experiment the target is Protein kinase C (PKC) (Rattus norvegicus) (UniProt P05696+P68403+P09216+P63319+P09215+Q64617+Q9WTQ0+P09217). The experiment in a line: Inhibition of partially purified rat brain protein kinase C.
As for `CN(C)C[C@@H]1C[C@@H]2O[C@H]1n1c3ccccc3c3c4c(c5c6ccccc6n2c5c31)C(=O)NC4=O`, the Inhibition is 4 nM.

As for `S=C1NC(=S)c2c1c1c3ccccc3n3c1c1c2c2ccccc2n1[C@H]1CC[C@@H]3O1`, the Inhibition worked out at 42 nM.

`O=C1NC(=O)c2c1c1c3ccccc3n3c1c1c2c2ccccc2n1[C@@H]1O[C@H]3C[C@H]1CO` came in with an Inhibition of 2.4 nM.

Molecule `O=C1NC(=O)c2c1c1c3ccccc3n3c1c1c2c2ccccc2n1[C@H]1CC[C@@H]3O1` showed an Inhibition of 19 nM.

With `O=C1NC(O)c2c1c1c3ccccc3n3c1c1c2c2ccccc2n1[C@H]1CC[C@@H]3O1` (stereo partly drawn), the Inhibition was found to be 50 nM.

`CNC(=O)[C@@H]1C[C@@H]2O[C@H]1n1c3ccccc3c3c4c(c5c6ccccc6n2c5c31)C(=O)NC4=O` yielded an Inhibition of 0.5 nM.

Consider `O=C1NC(=O)c2c1c1c3ccccc3n3c1c1c2c2ccccc2n1[C@@H]1O[C@H]3C[C@@H]1CO`, for which the Inhibition came out at 1.7 nM.

In the case of `NC1=NC(=O)c2c1c1c3ccccc3n3c1c1c2c2ccccc2n1[C@@H]1CC[C@H]3O1`, the Inhibition is 13 nM.

In the case of `O=C1NC(=S)c2c1c1c3ccccc3n3c1c1c2c2ccccc2n1[C@H]1CC[C@@H]3O1`, the Inhibition was determined as 58 nM.

Regarding `C=C1C[C@@H]2O[C@H]1n1c3ccccc3c3c4c(c5c6ccccc6n2c5c31)C(=O)NC4=O`, the Inhibition was determined as 5 nM.

`NN1C(=O)c2c(c3c4ccccc4n4c3c3c2c2ccccc2n3[C@@H]2CC[C@H]4O2)C1=O` displayed an Inhibition of more than 5000 nM.

`CN1C(=O)c2c(c3c4ccccc4n4c3c3c2c2ccccc2n3[C@@H]2CC[C@H]4O2)C1=O` registered an Inhibition of more than 5000 nM.

The molecule `O=C1NC(=O)c2c1c1c3ccccc3n3c1c1c2c2ccccc2n1[C@@H]1O[C@H]3C[C@@]1(O)C(=O)O` registered an Inhibition of 6 nM.

With `O=C1NCc2c1c1c3ccccc3n3c1c1c2c2ccccc2n1[C@H]1CC[C@@H]3O1`, the Inhibition came out at 18 nM.

`O=C1NC(=O)c2c1c1c3ccccc3n3c1c1c2c2ccccc2n1[C@@H]1O[C@H]3C[C@H]1C(=O)O` showed an Inhibition of 20 nM.
